# Source: article PMC12196213, “New Insights into the Anticancer Effects and Toxicogenomic Safety of Two β-Lapachone Derivatives” (Pharmaceuticals, 2025)
# Values joined by “and” are separate entries in the source; they are usually repeats but may differ in a detail not shown here. Identical values can stand only once.
# Assays:
# HeLa cells = test: Morphological analysis, rapid panoptic staining; type: cell-based, human; conditions: 72 h, at IC50 and 2 × IC50
# Description: Following the screening of IC50 values and SI in solid tumor cells, indications of potential cell death were explored in the most sensitive cell line. The morphological changes were evaluated according to protocols previously published with modifications. Thus, HeLa cells were seeded in 12-well plates at a concentration of 4 × 10^5 cells/mL and incubated overnight for adhesion. […] After the treatment period, the medium was aspirated, and the plate was washed twice with PBS. The cells were fixed and stained using the Panoptic Rapid Kit following the manufacturer’s protocol. Morphological analyses were conducted to observe cellular alterations indicative of cell death, including cellular volume reduction, membrane integrity, karyolysis, pyknosis, karyorrhexis, apoptotic bodies, vacuoles, and cellular debris.
# [1] = test system: HCT-116 (human colon carcinoma); test: MTT cytotoxicity assay, HCT-116; type: cell-based; conditions: for IC50: Homo sapiens, HCT-116, 72 h, MTT; for selectivity index (SI): IC50 L929 / IC50 HCT-116, 72 h
# Description: (§1) To assess the cytotoxicity of the compounds, the MTT [3-(4,5-dimethylthiazol-2-yl)-2,5-diphenyltetrazolium bromide] assay was employed. The cells (2 × 10^5/mL) were incubated with the substances at concentrations ranging from 0.78 to 25 µg/mL. β-lap was used as a positive control. After 24, 48, or 72 h of incubation, MTT was added at a concentration of 5 mg/mL. Cell viability in different treatments was compared to the negative control using the following formula: Cell viability%=mean absorbance of treated samples/mean absorbance of negative control×100 The IC50 (the concentration that inhibits 50% of cell growth compared to the negative control) was calculated using nonlinear regression in GraphPad Prism 8.0 for Windows (GraphPad Demo Software, San Diego, CA, USA). Experiments were performed in triplicate and in two independent experiments. The protocol is also described in other previous publications. The IC50 of normal and cancer cells was used to calculate the SI of compounds BV3 and BV5. The SI indicated the selectivity of the compounds among the normal cell line (L-929) and a cancer cell line (HCT-116, MDA-MB-231, HepG2, or HeLa). SI is a crucial parameter for therapeutic applications in upcoming clinical trials. Therefore, the following formula was used to calculate SI: SI=IC50(normal cell line)/IC50(cancer cell line)
# [2] = test system: HeLa (human cervical adenocarcinoma); test: MTT cytotoxicity assay, HeLa; type: cell-based; conditions: for IC50: Homo sapiens, HeLa, MTT; for selectivity index (SI): IC50 L929 / IC50 HeLa
# Description: as §1
# [3] = test system: polychromatic erythrocytes (PCE) from Swiss mice; test: Micronucleus assay in vivo; set-up: species or system Mus musculus; conditions: intraperitoneally, 500, 1000 and 2000 mg/kg, blood 48 h after administration
# Description: Forty female Mus musculus mice (Swiss strain) were used. The animals were divided into 8 groups, with 5 animals each: G1—negative control (NC) treated with the vehicle solution intraperitoneally; G2—positive control (PC) treated intraperitoneally with cyclophosphamide at a dose of 30 mg/kg; groups exposed to the BV3 derivative—Group BV3—I intraperitoneally at doses of 2000 mg/kg; Group BV3—II 1000 mg/kg; Group BV3—III 500 mg/kg; and groups exposed to BV5—Group BV5—I, received BV5 intraperitoneally at doses of 2000 mg/kg; Group BV5—II 1000 mg/kg; and Group BV5—III 500 mg/kg. For the comet assay, approximately 0.5 mL of blood from each animal was collected via the tail vein 6–8 h after administration of the compounds. For the micronucleus test, 1 mL of blood from each animal was collected by cardiac puncture 48 h after administration of the compounds. For that collection, the mice were anesthetized with ketamine (100 mg/kg) and xylazine (10 mg/kg), intraperitoneally. […]
# The same mice from the comet test (females n = 40) were used, equally with the 8 experimental groups mentioned above. […] Two slides were prepared per animal, in which 2000 polychromatic erythrocytes (PCE) were analyzed for the presence of micronuclei. The analysis was carried out using a Zeiss Axio Imager M2 fluorescence microscope, with a 40× objective and Alexa Fluor 488 filter (Carl Zeiss AG™, Germany).
# [4] = set-up: method as in PMID 35934135; conditions: cited from earlier work; for toxicity category, Globally Harmonized System of Classification and Labelling of Chemicals: acute toxicity; for deaths in acute toxicity experiments: dose of 2000 mg/kg
Compound,morphological changes (HeLa cells),IC50 [1] [µM],selectivity index (SI) [1],IC50 ([2]; 24 h) [µM],IC50 ([2]; 48 h) [µM],IC50 ([2]; 72 h) [µM],selectivity index (SI) ([2]; 72 h),number of micronuclei compared to negative control [3],"toxicity category, Globally Harmonized System of Classification and Labelling of Chemicals [4]",deaths in acute toxicity experiments [4]
"CC1(C)CCC2=C(O1)c1ccccc1/C(=N/NC(=S)Nc1ccc([N+](=O)[O-])cc1)C2=O [BV3, 2-(2,2-dimethyl-5-oxo-3,4-dihydro-2H-benzo[h]chromen-6(5H)-ylidene)-N-(4nitrophen-yl)thio-carbohydrazide]","reduced cellular volume, cells with condensed chromatin, and cellular debris",20.6,2.13,> 57,23.5,2.81,15.6,no differences,Category 5,no deaths
"Cc1ccc(NC(=S)N/N=C2\C(=O)C3=C(OC(C)(C)CC3)c3ccccc32)cc1 [BV5, 2-(2,2-dimethyl-5-oxo-3,4-dihydro-2H-benzo[h]chromen-6(5H)-ylidene)-N-(p-tolyl)-thiocarbohydrazide]","loss of membrane integrity, reduced cellular volume, presence of fragmented/pyknotic nuclei, chromatin condensation, and cellular debris",36.9,–,> 61,24.5,17.8,–,no differences,Category 5,no deaths
"CC1(C)CCC2=C(O1)c1ccccc1C(=O)C2=O [β-lap, β-Lapachone]",–,0.14,32.4,10.7,8.87,2.39,1.89 and 1.9,–,–,–
